Results: patent publication US20140350119A1, “OPHTHALMIC COMPOSITION COMPRISING GERANYLGERANYLACETONE” (ROHTO PHARMACEUTICAL CO., LTD., priority 2012, published 2014)

Columns and labels:
[1] = system: PC12; test: Protective effect against ischemic cell death induced by hypoxia and low glucose (cell viability, Cell Titer-Glo); type: cell-based, rat; conditions: 30 μM, 2 h, then low glucose, zero percent O2, 8 h, FIG. 1, Tukey-Kramer test
Source text: The progress of visual impairment in glaucoma is associated with retinal ganglion cell (RGC) death due to blood flow failure occurring near the optic nerve (Folia Pharmacol. Jpn. 128, 255-258 (2006)). With the use of PC12, which is a typical neural cell line established from rat adrenal […] pheochromocytoma and used also as a model cell for the functional evaluation of RGC (J Neurosci Res. 2000 May 15; 60(4): 495-503.), the cytoprotective effect of GGA against ischemic cell death induced by hypoxia and low glucose was evaluated.
Test samples were prepared as follows. The test substances were four types of GGAs that contain the all-trans form and the 5Z-mono-cis form at a weight ratio of 10:0, 8:2, 6:4, and 0:10, respectively. […]
After 8 hours of incubation, 100 μL of an equivalent mixture of a cell viability detection reagent Cell Titer-Glo (Promega) and PBS was added to each well and the luminescence produced by the reaction with ATP in living cells was measured with a luminometer (GloMax; Promega). The cell viability was calculated from the measured luminescence by the following formula and the cytoprotective effect of GGA against […] was examined.
Cell viability (%)=100×[(luminescence of base- or GGA-treated group)/(luminescence of non-treated group)]

[2] = system: IL-8 production by TNF-α in ARPE-19; test: Inhibitory effect on IL-8 production by TNF-α from retinal pigment epithelial cells; type: cell-based, human; conditions: all-trans form content 50 μM, 16 hours, TNF-α 4 hours, FIG. 5, n=3
Source text: Age-related macular degeneration is known to involve the accumulation of drusen under the retinal pigment epithelium. Drusen attract macrophages and macrophages secrete TNF-α. TNF-α acts on the retinal pigment epithelium and its peripheral tissue, and the cells subsequently produce a variety of cytokines and cause inflammation (Mol Vis. 2008 14: 2292-303). A typical cytokine that is involved in neutrophil migration and spreads inflammation is interleukin-8 (IL-8). In this experiment, the inhibitory effect of GGA on IL-8 production by TNF-α was examined using a human-derived retinal pigment epithelial cell line, ARPE-19. […]
After 4 hours of incubation, 150 μL of the cell culture supernatant was collected and stored at −80° C. […] Then, 100 μL of an equivalent mixture of a cell viability detection reagent Cell Titer-Glo and PBS was added to each well and the luminescence produced by the reaction with ATP in living cells was measured with a luminometer. From the measured luminescence, the cell viability was calculated by the following formula.
Cell viability (%)=100×[(luminescence of GGA-treated group)/(luminescence of base-treated group)]
The stored cell culture supernatant was allowed to warm to room temperature, and the IL-8 concentration was quantified with Human CXCL8/IL-8 Quantikine ELISA Kit (R&D Systems). […]

CC(=O)CC/C=C(\C)CC/C=C(\C)CC/C=C(\C)CCC=C(C)C [all-trans form, (5E,9E,13E)-6,10,14,18-tetramethyl-5,9,13,17-nonadecatetrae n-2-one]
Cytoprotective effect compared with GGA of weight ratio 6:4 [1]: significantly higher cytoprotective effects | Inhibitory effect on IL-8 production compared with GGA 6:4 [2]: significant inhibitory effect on IL-8 production
